These results are taken from ChEMBL document CHEMBL4368907 (J Med Chem, 2019).

Each structure is given as a SMILES string. pEC50, pIC50: −log10 of the molar value. Numbered stars: 1 amine (or outer) side, 2 acyl side, 3 side chain; on linkers, the order of the positions; unused ones are H or OH. Square brackets hold non-standard residues; d marks the D form. Peptide text beside a SMILES is read from it. * marks the point of attachment. Phe(4-CH2SO3H) = N[C@@H](Cc1ccc(CS(=O)(=O)O)cc1)C(=O)O; Phenylacetyl(4-OSO3H) = O=C(Cc1ccc(OS(=O)(=O)O)cc1)*; C20 diacid = O=C(O)CCCCCCCCCCCCCCCCCCC(=O)*; sY = N[C@@H](Cc1ccc(OS(=O)(=O)O)cc1)C(=O)O; C18 diacid = O=C(O)CCCCCCCCCCCCCCCCC(=O)*; γGlu = O=C(O)[C@H](CCC(=O)[*:2])N[*:1]; 1Nal = N[C@@H](Cc1cccc2ccccc12)C(=O)O; C14 diacid = O=C(O)CCCCCCCCCCCCC(=O)*; Hyp = O=C(O)[C@@H]1C[C@@H](O)CN1; NMeF = CN[C@@H](Cc1ccccc1)C(=O)O; NMeD = CN[C@@H](CC(=O)O)C(=O)O; dNMeD = CN[C@H](CC(=O)O)C(=O)O; Nle = CCCC[C@H](N)C(=O)O; AEEA = NCCOCCOCC(=O)O

A short description of data set [1]: Terminal half life in Ellegaard Gottingen minipig at 5 nmol/kg, iv by LC-MS/MS analysis. It counts as ADME, organism-based, Sus scrofa. The conditions noted are these: pig, in vivo, read-out: beta t1/2 (converted).
Data set [2] addresses T1, Cholecystokinin receptor type A (Homo sapiens, UniProt P32238).
T1 sequence (P32238 whole entry): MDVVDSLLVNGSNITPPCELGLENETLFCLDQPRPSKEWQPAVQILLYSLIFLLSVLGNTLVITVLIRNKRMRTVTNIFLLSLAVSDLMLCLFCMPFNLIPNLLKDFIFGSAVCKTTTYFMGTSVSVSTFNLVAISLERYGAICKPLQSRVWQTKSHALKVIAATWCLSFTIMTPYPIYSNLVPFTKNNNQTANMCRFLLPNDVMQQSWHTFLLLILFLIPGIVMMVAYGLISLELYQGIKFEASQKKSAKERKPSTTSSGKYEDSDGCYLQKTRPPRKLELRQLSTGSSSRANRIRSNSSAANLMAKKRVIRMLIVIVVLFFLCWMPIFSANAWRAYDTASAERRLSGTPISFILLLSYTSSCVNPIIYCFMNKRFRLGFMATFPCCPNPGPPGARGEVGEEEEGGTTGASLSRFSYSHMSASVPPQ
The experiment in a line: Displacement of [125I]-CCK-8 from human CCK1R expressed in human 1321N1 cell membranes after 2 hrs by SPA assay.

Data set [3] concerns the target T1, Cholecystokinin receptor type A. The experiment in a line: Agonist activity at human CCK1R expressed in human 1321N1 cells assessed as IP1 accumulation after 1 hr by HTRF assay. The class given is functional, cell-based. Background: TR-FRET usually uses a lanthanide donor and a delayed reading to cut background.
Data set [4] has as its target T2, Gastrin/cholecystokinin type B receptor (Homo sapiens, UniProt P32239).
T2 sequence (P32239 whole entry): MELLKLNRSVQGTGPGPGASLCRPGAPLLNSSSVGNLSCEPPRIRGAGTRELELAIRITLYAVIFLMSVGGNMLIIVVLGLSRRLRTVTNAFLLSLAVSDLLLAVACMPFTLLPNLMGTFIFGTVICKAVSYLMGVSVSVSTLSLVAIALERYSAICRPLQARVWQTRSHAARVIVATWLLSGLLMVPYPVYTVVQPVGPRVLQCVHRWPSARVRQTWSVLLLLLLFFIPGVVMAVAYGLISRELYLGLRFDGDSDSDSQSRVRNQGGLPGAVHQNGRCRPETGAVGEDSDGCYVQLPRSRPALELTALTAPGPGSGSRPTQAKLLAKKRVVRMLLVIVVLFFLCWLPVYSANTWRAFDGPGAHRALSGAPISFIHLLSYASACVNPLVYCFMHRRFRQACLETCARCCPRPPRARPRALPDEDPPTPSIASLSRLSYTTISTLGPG
Description: Agonist activity at human CCK2R expressed in human 1321N1 cells assessed as IP1 accumulation after 1 hr by HTRF assay. The class given is functional, cell-based.

The target of data set [5] is T2, Gastrin/cholecystokinin type B receptor. Description: Displacement of [125I]-CCK-8 from human CCK2R expressed in human 1321N1 cell membranes after 2 hrs by SPA assay. Background: Displacement assays read how much labelled ligand stays bound in the presence of the test substance.

As to `CCCC[C@H](NC(=O)[C@H](Cc1c[nH]c2ccccc12)NC(=O)CNC(=O)[C@H](CC(C)C)NC(=O)[C@H](Cc1ccc(OS(=O)(=O)O)cc1)NC(=O)[C@H](CC(=O)O)NC(=O)CCCCCCCCCCCCCCCCC(=O)O)C(=O)N(C)[C@H](CC(=O)O)C(=O)N(C)[C@@H](Cc1ccccc1)C(N)=O`, in data set [1], the half-life is 2.6 h. For the same compound, the pIC50 (commonly the negative decadic logarithm of the IC50, by convention in mol/L) in data set [2] was 9.97.
With `CCCC[C@H](NC(=O)[C@H](Cc1c[nH]c2ccccc12)NC(=O)CNC(=O)[C@H](CC(C)C)NC(=O)[C@H](Cc1ccc(CS(=O)(=O)O)cc1)NC(=O)[C@H](CC(=O)O)NC(=O)COCCOCCNC(=O)COCCOCCNC(=O)CC[C@H](NC(=O)CCCCCCCCCCCCC(=O)O)C(=O)O)C(=O)N(C)[C@H](CC(=O)O)C(=O)N(C)[C@@H](Cc1ccccc1)C(N)=O` ({C14 diacid-γGlu-AEEA-AEEA}-D[Phe(4-CH2SO3H)]LGW[Nle][dNMeD][NMeF]-NH2), the half-life in data set [1] was 2 h. Besides, the pIC50 in data set [2] is 9.81. Further, in data set [3], the pEC50 (as a rule, the EC50 on a negative log10 scale, so that one unit is a factor of ten) was 9.74.
`CCCC[C@H](NC(=O)[C@H](Cc1ccc(OS(=O)(=O)O)cc1)NC(=O)[C@H](CC(=O)O)NC(=O)COCCOCCNC(=O)COCCOCCNC(=O)CC[C@H](NC(=O)CCCCCCCCCCCCCCCCC(=O)O)C(=O)O)C(=O)NCC(=O)N[C@@H](Cc1c[nH]c2ccccc12)C(=O)N[C@@H](CCCC)C(=O)N[C@@H](CC(=O)O)C(=O)N[C@@H](Cc1c[nH]c2ccccc12)C(N)=O` ({C18 diacid-γGlu-AEEA-AEEA}-D[sY][Nle]GW[Nle]DW-NH2): the pEC50 in data set [4] was 9.38; in data set [3], 9.49. Further, the pIC50 in data set [2] is 8.65; in data set [5] it was 9.88.
Regarding `CCCC[C@H](NC(=O)[C@H](Cc1ccc(OS(=O)(=O)O)cc1)NC(=O)[C@H](CC(=O)O)NC(=O)COCCOCCNC(=O)COCCOCCNC(=O)CC[C@H](NC(=O)CCCCCCCCCCCCCCCCC(=O)O)C(=O)O)C(=O)NCC(=O)N[C@@H](Cc1c[nH]c2ccccc12)C(=O)N[C@@H](CCCC)C(=O)N[C@@H](CC(=O)O)C(=O)N[C@@H](Cc1ccc(O)cc1)C(N)=O` ({C18 diacid-γGlu-AEEA-AEEA}-D[sY][Nle]GW[Nle]DY-NH2), the pEC50 in data set [4] was 9.49; in data set [3] it was 9.01. Moreover, the values for the pIC50 in data set [2] and in data set [5] were 8.04 and 9.88, respectively.
For `CCCC[C@H](NC(=O)[C@H](Cc1ccc(OS(=O)(=O)O)cc1)NC(=O)[C@H](CC(=O)O)NC(=O)COCCOCCNC(=O)COCCOCCNC(=O)CC[C@H](NC(=O)CCCCCCCCCCCCCCCCC(=O)O)C(=O)O)C(=O)NCC(=O)N[C@@H](Cc1c[nH]c2ccccc12)C(=O)N[C@@H](CCCC)C(=O)N[C@@H](CC(=O)O)C(=O)N[C@@H](Cc1cccc2ccccc12)C(N)=O` ({C18 diacid-γGlu-AEEA-AEEA}-D[sY][Nle]GW[Nle]D[1Nal]-NH2), in that order: 9.39, 9.79, 10.12 and 10.03.
As to `CCCC[C@H](NC(=O)[C@H](Cc1ccc(OS(=O)(=O)O)cc1)NC(=O)[C@H](CC(=O)O)NC(=O)COCCOCCNC(=O)COCCOCCNC(=O)CC[C@H](NC(=O)CCCCCCCCCCCCCCCCC(=O)O)C(=O)O)C(=O)NCC(=O)N[C@@H](Cc1c[nH]c2ccccc12)C(=O)N[C@@H](CCCC)C(=O)N[C@@H](CC(N)=O)C(=O)N[C@@H](Cc1ccccc1)C(N)=O` ({C18 diacid-γGlu-AEEA-AEEA}-D[sY][Nle]GW[Nle]NF-NH2), the pEC50 in data set [4] is 8.24; in data set [3], 7.93. For the same compound, the results for the pIC50 in data set [2] and in data set [5] were 7.72 and 6.51, respectively.
In the case of `CCCC[C@H](NC(=O)[C@H](Cc1ccc(OS(=O)(=O)O)cc1)NC(=O)[C@H](CC(=O)O)NC(=O)COCCOCCNC(=O)COCCOCCNC(=O)CC[C@H](NC(=O)CCCCCCCCCCCCCCCCC(=O)O)C(=O)O)C(=O)NCC(=O)N[C@@H](Cc1c[nH]c2ccccc12)C(=O)N[C@@H](CCCC)C(=O)N1C[C@H](O)C[C@H]1C(=O)N[C@@H](Cc1ccccc1)C(N)=O` ({C18 diacid-γGlu-AEEA-AEEA}-D[sY][Nle]GW[Nle][Hyp]F-NH2), the pEC50 in data set [4] is 7.59; in data set [3], 8.95. The results for the pIC50 in data set [2] and in data set [5] were 8.52 and 6.34, respectively.
Regarding `CCCC[C@H](NC(=O)[C@H](Cc1ccc(OS(=O)(=O)O)cc1)NC(=O)[C@H](CC(=O)O)NC(=O)COCCOCCNC(=O)COCCOCCNC(=O)CC[C@H](NC(=O)CCCCCCCCCCCCCCCCC(=O)O)C(=O)O)C(=O)NCC(=O)N[C@@H](Cc1c[nH]c2ccccc12)C(=O)N[C@@H](CCCC)C(=O)N(C)[C@@H](CC(=O)O)C(=O)N[C@@H](Cc1cccc2ccccc12)C(N)=O` ({C18 diacid-γGlu-AEEA-AEEA}-D[sY][Nle]GW[Nle][NMeD][1Nal]-NH2), the pEC50 is 8.73 in data set [4] and 9.30 in data set [3]. For the same compound, the pIC50 in data set [2] is 10.10; in data set [5], 6.94.
Take `CCCC[C@H](NC(=O)[C@H](Cc1c[nH]c2ccccc12)NC(=O)[C@H](CCCCN)NC(=O)[C@H](CCCC)NC(=O)[C@H](Cc1ccc(OS(=O)(=O)O)cc1)NC(=O)[C@H](CC(=O)O)NC(=O)COCCOCCNC(=O)COCCOCCNC(=O)CC[C@H](NC(=O)CCCCCCCCCCCCCCCCC(=O)O)C(=O)O)C(=O)N[C@@H](CC(=O)O)C(=O)N[C@@H](Cc1ccccc1)C(N)=O` ({C18 diacid-γGlu-AEEA-AEEA}-D[sY][Nle]KW[Nle]DF-NH2): the pEC50 in data set [4] is 9.08; in data set [3] it was 6.04. Besides, the results for the pIC50 in data set [2] and in data set [5] were 5.59 and 7.87, respectively.
Regarding `CCCC[C@H](NC(=O)[C@H](Cc1c[nH]c2ccccc12)NC(=O)[C@@H]1CCCN1C(=O)[C@H](CCCC)NC(=O)[C@H](Cc1ccc(OS(=O)(=O)O)cc1)NC(=O)[C@H](CC(=O)O)NC(=O)COCCOCCNC(=O)COCCOCCNC(=O)CC[C@H](NC(=O)CCCCCCCCCCCCCCCCC(=O)O)C(=O)O)C(=O)N[C@@H](CC(=O)O)C(=O)N[C@@H](Cc1ccccc1)C(N)=O` ({C18 diacid-γGlu-AEEA-AEEA}-D[sY][Nle]PW[Nle]DF-NH2), the pEC50 in data set [4] is 9.42; in data set [3] it was 6.22. Moreover, the figures for the pIC50 in data set [2] and in data set [5] were 6.03 and 9.23, respectively.
Take `CCCC[C@H](NC(=O)[C@H](Cc1c[nH]c2ccccc12)NC(=O)CNC(=O)[C@H](CC(C)C)NC(=O)[C@H](Cc1ccc(CS(=O)(=O)O)cc1)NC(=O)[C@H](CC(=O)O)NC(=O)COCCOCCNC(=O)COCCOCCNC(=O)CC[C@H](NC(=O)CCCCCCCCCCCCCCCCCCC(=O)O)C(=O)O)C(=O)N(C)[C@H](CC(=O)O)C(=O)N(C)[C@@H](Cc1ccccc1)C(N)=O` ({C20 diacid-γGlu-AEEA-AEEA}-D[Phe(4-CH2SO3H)]LGW[Nle][dNMeD][NMeF]-NH2): the half-life in data set [1] was 153 h. Further, the pIC50 in data set [2] is 10.39. Also, the pEC50 in data set [3] was 9.43.
Turning to `CCCC[C@H](NC(=O)Cc1ccc(OS(=O)(=O)O)cc1)C(=O)NCC(=O)N[C@@H](Cc1c[nH]c2ccccc12)C(=O)N[C@@H](CCCC)C(=O)N(C)[C@H](CC(=O)O)C(=O)N[C@@H](Cc1ccccc1)C(N)=O` ({Phenylacetyl(4-OSO3H)}-[Nle]GW[Nle][dNMeD]F-NH2), the pEC50 in data set [4] is under 6.00; in data set [3], 10.60. For the same compound, the pIC50 in data set [2] was 10.35; in data set [5] it was 5.13.
